Measurements taken from ChEMBL document CHEMBL4118148, “Design, synthesis and cardiovascular evaluation of some aminoisopropanoloxy derivatives of xanthone” (Bioorg Med Chem, 2018).
Activity calls are given as the source filed them. The calls are words filed in the database; no cut-off is given here.

What was measured:
Rattus norvegicus [1] = assay: Hypotensive activity in normotensive Wistar rat assessed as systolic blood pressure at 5 mg/kg, iv measured after 20 mins (reference value: 119.2 to 148.6 mmHg); type: functional
Rattus norvegicus [2] = assay: Hypotensive activity in normotensive Wistar rat assessed as systolic blood pressure at 2.5 mg/kg, iv measured after 60 mins (reference value: 148.5 +/- 2.6 mmHg); type: functional
Rattus norvegicus [3] = assay: Hypotensive activity in normotensive Wistar rat assessed as diastolic blood pressure at 5 mg/kg, iv measured after 20 mins (reference value: 86.5 to 119.4 mmHg); type: functional
Rattus norvegicus [4] = assay: In vivo inhibition of beta adrenoceptor in Wistar rat assessed as reduction in isoprenaline-induced tachycardia at 5 mg/kg, iv administered as single dose 10 mins prior to isoprenaline injection; type: functional, organism-based
Rattus norvegicus [5] = assay: Cardiotoxicity in Wistar rat assessed as effect on QT interval time at 5 mg/kg, iv measured after 5 mins (reference value: 57.7 to 61 ms); type: toxicity, organism-based; conditions: in vivo
[6] = molecular target: T1, Adrenergic receptor alpha-1 (Rattus norvegicus) (UniProt P15823+P23944+P43140); assay: Displacement of [3H][…]prazosin from adrenergic alpha1 receptor in Wistar rat cortex at 10^-5 M incubated for 30 mins by microbeta liquid scintillation counting analysis
[7] = molecular target: Beta-2 adrenergic receptor (Cavia porcellus, UniProt Q8K4Z4); assay: Antagonist activity at adrenergic beta2 receptor in isolated guinea pig trachea assessed as inhibition of isoprenaline-induced bronchodilation incubated for 20 mins; type: functional; conditions: read-out: pA2 (converted)
Beta-2 adrenergic receptor, sequence (Q8K4Z4 whole entry): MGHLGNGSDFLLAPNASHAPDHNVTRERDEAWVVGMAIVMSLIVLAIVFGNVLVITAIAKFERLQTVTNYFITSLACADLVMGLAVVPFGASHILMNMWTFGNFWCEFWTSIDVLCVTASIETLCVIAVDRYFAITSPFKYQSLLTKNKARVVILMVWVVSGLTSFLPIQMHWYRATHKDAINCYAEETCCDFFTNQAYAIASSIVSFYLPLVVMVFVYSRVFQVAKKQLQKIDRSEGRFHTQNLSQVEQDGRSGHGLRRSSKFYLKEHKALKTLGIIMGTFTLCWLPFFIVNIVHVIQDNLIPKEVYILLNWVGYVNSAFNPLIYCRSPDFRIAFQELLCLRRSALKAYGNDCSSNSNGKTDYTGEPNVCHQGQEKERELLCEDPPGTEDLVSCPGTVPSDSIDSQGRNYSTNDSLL

Rattus norvegicus [8] = assay: Cardiotoxicity in Wistar rat assessed as effect on QTC interval time at 5 mg/kg, iv measured after 1 min (reference value: 136.7 to 146.2 ms); type: toxicity, organism-based; conditions: in vivo
Rattus norvegicus [9] = assay: Cardiotoxicity in Wistar rat assessed as effect on QRS interval time at 5 mg/kg, iv measured after 15 mins (reference value: 16.7 to 20.7 ms); type: toxicity, organism-based; conditions: in vivo, 0.25 h
Rattus norvegicus [10] = assay: Hypotensive activity in normotensive Wistar rat assessed as reduction in diastolic blood pressure at 2.5 mg/kg, iv measured after 5 to 10 mins relative to control; type: functional; parameters: scale not given: the % may be the effect or the level left
Rattus norvegicus [11] = assay: Hypotensive activity in normotensive Wistar rat assessed as diastolic blood pressure at 5 mg/kg, iv measured after 60 mins (reference value: 86.5 to 119.4 mmHg); type: functional
Rattus norvegicus [12] = assay: Hypotensive activity in normotensive Wistar rat assessed as diastolic blood pressure at 5 mg/kg, iv measured after 30 mins (reference value: 86.5 to 119.4 mmHg); type: functional
Rattus norvegicus [13] = assay: Cardiotoxicity in Wistar rat assessed as effect on QT interval time at 5 mg/kg, iv measured after 15 mins (reference value: 57.7 to 61 ms); type: toxicity, organism-based; conditions: in vivo, 0.25 h
Rattus norvegicus [14] = assay: Hypotensive activity in normotensive Wistar rat assessed as diastolic blood pressure at 5 mg/kg, iv measured after 10 mins (reference value: 86.5 to 119.4 mmHg); type: functional
[15] = molecular target: Beta-1 adrenergic receptor (Rattus norvegicus, UniProt P18090); assay: Displacement of [3H]-CGP-12177 from adrenergic beta1 receptor in Wistar rat cortex incubated for 60 mins by microbeta liquid scintillation counting analysis
Beta-1 adrenergic receptor, sequence (P18090 whole entry): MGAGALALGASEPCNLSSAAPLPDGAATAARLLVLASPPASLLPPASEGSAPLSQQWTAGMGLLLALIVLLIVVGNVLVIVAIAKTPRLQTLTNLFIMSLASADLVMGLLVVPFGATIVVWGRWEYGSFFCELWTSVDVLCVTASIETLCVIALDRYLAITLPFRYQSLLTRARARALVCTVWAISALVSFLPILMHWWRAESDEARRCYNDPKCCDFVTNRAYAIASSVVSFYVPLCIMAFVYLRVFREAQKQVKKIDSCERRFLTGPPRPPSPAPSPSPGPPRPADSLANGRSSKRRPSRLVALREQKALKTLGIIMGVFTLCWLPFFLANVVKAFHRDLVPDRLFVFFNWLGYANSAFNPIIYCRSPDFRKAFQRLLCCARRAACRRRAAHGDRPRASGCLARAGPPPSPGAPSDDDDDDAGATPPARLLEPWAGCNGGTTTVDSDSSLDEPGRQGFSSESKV

Rattus norvegicus [16] = assay: Hypotensive activity in normotensive Wistar rat assessed as diastolic blood pressure at 1 mg/kg, iv measured after 20 mins (reference value: 88.4 to 122.7 mmHg); type: functional
Rattus norvegicus [17] = assay: Hypotensive activity in normotensive Wistar rat assessed as diastolic blood pressure at 1 mg/kg, iv measured after 10 mins (reference value: 88.4 to 122.7 mmHg); type: functional
Rattus norvegicus [18] = assay: Hypotensive activity in normotensive Wistar rat assessed as systolic blood pressure at 1 mg/kg, iv measured after 30 mins (reference value: 122.4 to 156.5 mmHg); type: functional
Rattus norvegicus [19] = assay: Hypotensive activity in normotensive Wistar rat assessed as systolic blood pressure at 1 mg/kg, iv measured after 20 mins (reference value: 122.4 to 156.5 mmHg); type: functional
[20] = molecular target: T1, Adrenergic receptor alpha-1 (Rattus norvegicus); assay: Antagonist activity at adrenergic alpha1 receptor in isolated Wistar rat aorta assessed as inhibition of […] contraction incubated for 20 mins
Rattus norvegicus [21] = assay: Hypotensive activity in normotensive Wistar rat assessed as diastolic blood pressure at 1 mg/kg, iv measured after 60 mins (reference value: 88.4 to 122.7 mmHg); type: functional
Rattus norvegicus [22] = assay: Hypotensive activity in normotensive Wistar rat assessed as diastolic blood pressure at 1 mg/kg, iv measured after 30 mins (reference value: 88.4 to 122.7 mmHg); type: functional
Rattus norvegicus [23] = assay: Hypotensive activity in normotensive Wistar rat assessed as systolic blood pressure at 1 mg/kg, iv measured after 5 mins (reference value: 122.4 to 156.5 mmHg); type: functional
Rattus norvegicus [24] = assay: Hypotensive activity in normotensive Wistar rat assessed as systolic blood pressure at 1 mg/kg, iv measured after 60 mins (reference value: 122.4 to 156.5 mmHg); type: functional
Rattus norvegicus [25] = assay: Hypotensive activity in normotensive Wistar rat assessed as reduction in systolic blood pressure at 1 mg/kg, iv measured over 40th min relative to control; type: functional; parameters: scale not given: the % may be the effect or the level left
Rattus norvegicus [26] = assay: Hypotensive activity in normotensive Wistar rat assessed as systolic blood pressure at 1 mg/kg, iv measured after 10 mins (reference value: 122.4 to 156.5 mmHg); type: functional
Rattus norvegicus [27] = assay: Hypotensive activity in normotensive Wistar rat assessed as diastolic blood pressure at 1 mg/kg, iv measured after 5 mins (reference value: 88.4 to 122.7 mmHg); type: functional
Rattus norvegicus [28] = assay: Hypotensive activity in normotensive Wistar rat assessed as reduction in diastolic blood pressure at 1 mg/kg, iv measured over 30 mins relative to control; type: functional; parameters: scale not given: the % may be the effect or the level left
Rattus norvegicus [29] = assay: Hypotensive activity in normotensive Wistar rat assessed as reduction in systolic blood pressure at 1 mg/kg, iv measured over 30 mins relative to control; type: functional; parameters: scale not given: the % may be the effect or the level left
Rattus norvegicus [30] = assay: Antiarrhythmic activity in Wistar rat assessed as inhibition of adrenaline-induced premature ventricular extrasystoles administered iv 15 mins prior to adrenaline challenge; type: functional
Rattus norvegicus [31] = assay: Hypotensive activity in normotensive Wistar rat assessed as systolic blood pressure at 0.5 mg/kg, iv measured after 10 mins (reference value: 147.7 +/- 5.9 mmHg); type: functional
Blood = assay: Anti-aggregative activity in Wistar rat whole blood assessed as inhibition of collagen/adrenaline-induced aggregation preincubated for 3 mins followed by collagen induction measured for 6 mins; type: functional, tissue-based
Rattus norvegicus [32] = assay: Cardiotoxicity in Wistar rat assessed as effect on PQ interval time at 1 mg/kg, iv measured after 1 min (reference value: 56.8 +/- 1.8 ms); type: toxicity, organism-based; conditions: in vivo
Rattus norvegicus [33] = assay: Cardiotoxicity in Wistar rat assessed as effect on heart rate at 1 mg/kg, iv measured after 15 mins (reference value: 320.6 +/- 8.1 bpm); type: toxicity, organism-based; conditions: in vivo, 0.25 h
Rattus norvegicus [34] = assay: Cardiotoxicity in Wistar rat assessed as effect on PQ interval time at 1 mg/kg, iv measured after 5 mins (reference value: 56.8 +/- 1.8 ms); type: toxicity, organism-based; conditions: in vivo
Rattus norvegicus [35] = assay: Cardiotoxicity in Wistar rat assessed as effect on QTC interval time at 1 mg/kg, iv measured after 1 min (reference value: 137.7 +/- 2 ms); type: toxicity, organism-based; conditions: in vivo

Row | Compound | Activity (Rattus norvegicus [1]) [mmHg] | Activity (Rattus norvegicus [3]) [mmHg] | Time (Rattus norvegicus [5]) [ms] | Kb [7] [nM] | Time (Rattus norvegicus [8]) [ms] | Time (Rattus norvegicus [9]) [ms] | Activity (Rattus norvegicus [11]) [mmHg] | Activity (Rattus norvegicus [12]) [mmHg] | Time (Rattus norvegicus [13]) [ms] | Activity (Rattus norvegicus [14]) [mmHg] | IC50 [15] [nM] | Ki [15] [nM] | Activity (Rattus norvegicus [16]) [mmHg] | Activity (Rattus norvegicus [17]) [mmHg] | Activity (Rattus norvegicus [18]) [mmHg] | Activity (Rattus norvegicus [19]) [mmHg] | Activity (Rattus norvegicus [21]) [mmHg] | Activity (Rattus norvegicus [22]) [mmHg] | Activity (Rattus norvegicus [23]) [mmHg] | Activity (Rattus norvegicus [24]) [mmHg] | other results
1 | COc1ccc(CCNCC(O)COc2cccc3c(=O)c4ccccc4oc23)cc1OC.Cl (racemic) | 127 | 97.4 | 66.7 | 41.4 | 128.1 | 21.3 | 98.6 | 96.2 | 63.3 | 105 | 106 | 357 |  |  |  |  |  |  |  |  | Activity (Rattus norvegicus [2]): 133 mmHg; inhibition (Rattus norvegicus [4]): Active; Activity [6]: inactive; Activity (Rattus norvegicus [10]): 8 - 16%
2 | Cl.O=c1c2ccccc2oc2cc(OCC(O)CN3CCN(c4ccccn4)CC3)ccc12 (racemic) | 108.8 | 80.3 | 58.3 |  | 140.2 | 21.3 | 74.7 | 79.5 | 59 | 80.5 |  | 1570 | 103.8 | 107 | 127.2 | 131 | 94.2 | 100.2 | 138.3 | 122.7 | pKb [20]: 8.2; Activity (Rattus norvegicus [25]): 8 - 10%; Activity (Rattus norvegicus [26]): 136 mmHg; Activity (Rattus norvegicus [27]): 107.5 mmHg
3 | COc1ccccc1OCCNCC(O)COc1cccc2c(=O)c3ccccc3oc12.Cl (racemic) | 97.7 | 71.5 | 67.3 | 18.1 | 157.2 | 18.7 | 80 | 77.2 | 63.3 | 73 | 178 | 852 | 84 | 82.8 | 112.4 | 114.8 | 75.6 | 81.6 | 119.6 | 106.8 | inhibition (Rattus norvegicus [4]): Active; pKb [20]: 8.34; Activity (Rattus norvegicus [28]): 7 - 14%; Activity (Rattus norvegicus [29]): 6 - 13%; Activity (Rattus norvegicus [26]): 114.8 mmHg; Activity (Rattus norvegicus [27]): 85.4 mmHg
4 | Cl.O=c1c2ccccc2oc2c(OCC(O)CN3CCN(c4ccccn4)CC3)cccc12 (racemic) | 129.8 | 102.6 | 59.5 |  | 145.4 | 19.2 | 96.6 | 99.8 | 60.2 | 106 | 1420 | 213 | 133 | 113.5 | 140 | 142.5 | 106.7 | 110.5 | 146.2 | 138.7 | ED50 (Rattus norvegicus [30]): 4.82 mg/kg; Activity (Rattus norvegicus [31]): 144 mmHg; pKb [20]: 7.52; Activity (Rattus norvegicus [26]): 146.2 mmHg; Activity (Rattus norvegicus [27]): 111.7 mmHg
5 | COc1ccccc1CCNCC(O)COc1cccc2c(=O)c3ccccc3oc12.Cl (racemic) | 128.2 | 98.8 | 61 | 21.4 | 149.3 | 17 | 89.6 | 97.2 | 60 | 101.8 | 426 | 359 | 111.5 | 114.2 | 135 | 141 | 101.2 | 107.7 | 147.8 | 126.3 | ED50 (Rattus norvegicus [30]): 2.2 mg/kg; inhibition (Rattus norvegicus [4]): Active; pKb [20]: 8.28; IC50 (Blood): 44800 nM; inhibition (Blood): Dose-dependent effect; Activity (Rattus norvegicus [29]): 5 - 11%; Activity (Rattus norvegicus [26]): 147 mmHg; Activity (Rattus norvegicus [27]): 114.8 mmHg
6 | CC(C)(C)NCC(O)COc1cccc2c(=O)c3ccccc3oc12.Cl (racemic) |  |  |  | 0.31 |  |  |  |  |  |  |  | 5.4 | 103.7 | 109.5 | 128.2 | 131.6 | 96.7 | 100 | 146.4 | 123 | ED50 (Rattus norvegicus [30]): 1.63 mg/kg; Time (Rattus norvegicus [32]): 57.6 ms; Activity (Rattus norvegicus [33]): 290.6 bpm; Time (Rattus norvegicus [34]): 58 ms; Activity [6]: inactive; IC50 (Blood): 82300 nM; inhibition (Blood): Dose-dependent effect; Time (Rattus norvegicus [35]): 134.5 ms; Activity (Rattus norvegicus [26]): 142.6 mmHg; Activity (Rattus norvegicus [27]): 111 mmHg
7 | COc1ccccc1CNCC(O)COc1cccc2c(=O)c3ccccc3oc12.Cl (racemic) | 133 | 100.6 | 64.7 | 114 | 151.4 | 21.3 | 94.3 | 96 | 66.7 | 107 | 179 | 10.8 |  |  |  |  |  |  |  |  | inhibition (Rattus norvegicus [4]): Active
